Experimental data from patent US4118583A, “Mixed esters of polyols” (Laboratories om Societe Anonyme, priority 1976, dated 1978).
Read-outs that look alike come from different tables or passages of the source.

Assays:
[1] = Acute toxicity on the male rat, p.o. (Table I); conditions: in vivo, po
Protocol: The acute toxicity of compounds I to VI was determined on the male rat (Table I).

[2] = system: cholesterol and triglycerides; assay: Hypocholesterolemiating and hypolipemiating activity in normolipemiating rats (Table III); type: in vivo; conditions: rat, gastric probe, equivalent of 75 mg/kg clofibrate every 12 hours, 10 days; for Triglycerides: untreated 1.13; for Cholesterol: untreated 90.79; for Cholesterol, decrease / Triglycerides, decrease: versus untreated
Protocol: Groups of 10 normolipemiating rats were treated for 10 days, by gastric probe, with the equivalent of 75 mg/kg of clofibrate, administered every 12 hours. After 10 days, 12 hours after the last administration, they were sacrificed and the cholesterol and triglycerides analysed (Table III).

[3] = comparison value given in text, no source or test printed; cited from earlier work

CC(=O)Oc1ccccc1C(=O)OCC(COC(=O)C(C)(C)Oc1ccc(Cl)cc1)OC(=O)C(C)(C)Oc1ccc(Cl)cc1 (stereo not drawn) [Compound III, 3-(acetylsalicyloxy)-1,2-di-(2-p-chlorophenoxy-2-methylpropionyloxy)-propane]
LD50 [1]: > 6200 mg/kg
Triglycerides [2]: 0.91 mm mole/l.
Cholesterol [2]: 75.63 mg/100 ml
Cholesterol, decrease [2]: 17%
Triglycerides, decrease [2]: 19%

CC(=O)Oc1ccccc1C(=O)OCC(COC(=O)C(C)(C)Oc1ccc(Cl)cc1)OS(=O)(=O)O (stereo not drawn) [Compound V]
LD50 [1]: > 5000 mg/kg
Triglycerides [2]: 0.89 mm mole/l.
Cholesterol [2]: 68.38 mg/100 ml
Cholesterol, decrease [2]: 25%
Triglycerides, decrease [2]: 21%

CC(=O)Oc1ccccc1C(=O)OC1C(OC(=O)c2ccccc2OC(C)=O)C(OC(=O)C(C)(C)Oc2ccc(Cl)cc2)C(OC(=O)C(C)(C)Oc2ccc(Cl)cc2)C(OC(=O)C(C)(C)Oc2ccc(Cl)cc2)C1OC(=O)C(C)(C)Oc1ccc(Cl)cc1 (stereo not drawn) [Compound I, 1,2-di-(acetylsalicyl)-3,4,5,6-tetra-(2-p-chlorophenoxy-2-methylpropionyl)-meso-inositol]
LD50 [1]: > 5000 mg/kg
Triglycerides [2]: 0.96 mm mole/l.
Cholesterol [2]: 78.25 mg/100 ml
Cholesterol, decrease [2]: 14%
Triglycerides, decrease [2]: 15%

CC(=O)Oc1ccccc1C(=O)OCCOC(=O)C(C)(C)Oc1ccc(Cl)cc1 [Compound VI, 1-(acetylsalicyloxy)-2-(2-p-chlorophenoxy-2-methylpropionyloxy)-ethane]
LD50 [1]: > 6000 mg/kg
Triglycerides [2]: 0.83 mm mole/l.
Cholesterol [2]: 67.34 mg/100 ml
Cholesterol, decrease [2]: 26%
Triglycerides, decrease [2]: 27%

CC(=O)Oc1ccccc1C(=O)OCC(COC(=O)C(C)(C)Oc1ccc(Cl)cc1)OC(C)=O (stereo not drawn) [Compound IV, 1-(acetylsalicyloxy)-3-(2-p-chlorophenoxy-2-methylpropionyloxy)-2-acetoxy-propane]
LD50 [1]: > 5000 mg/kg
Triglycerides [2]: 0.97 mm mole/l.
Cholesterol [2]: 72.12 mg/100 ml
Cholesterol, decrease [2]: 21%
Triglycerides, decrease [2]: 14%

CCOC(=O)C(C)(C)Oc1ccc(Cl)cc1 [clofibrate, reference compound]
LD50 [3]: 1200 mg/kg
Triglycerides [2]: 0.83 mm mole/l.
Cholesterol [2]: 65.24 mg/100 ml
Cholesterol, decrease [2]: 28%
Triglycerides, decrease [2]: 27%

CC(=O)Oc1ccccc1C(=O)O [acetylsalicylic acid]
LD50 [3]: 1750 mg/kg

CC(=O)Oc1ccccc1C(=O)OC(COC(=O)C(C)(C)Oc1ccc(Cl)cc1)COC(=O)C(C)(C)Oc1ccc(Cl)cc1 [Compound II, 1,3-di-(2-p-chlorophenoxy-2-methylpropionyloxy)-2-(acetylsalicyloxy)-propane]
LD50 [1]: > 7500 mg/kg
Triglycerides [2]: 0.92 mm mole/l.
Cholesterol [2]: 73.90 mg/100 ml
Cholesterol, decrease [2]: 19%
Triglycerides, decrease [2]: 19%
